Values joined by “and” are separate entries in the source; they are usually repeats but may differ in a detail not shown here. Identical values can stand only once.
Test system: 958767-090-R-J1-PDC spheroid growth
Assay: Anticancer human tumor 958767-090-R-J1-PDC patient-derived head and neck squamous carcinoma cell line growth inhibition [IpAb]
Settings: spheroids with HUVEC and MSC; for viability, T/C: stronger effect = lower value
Excerpt: Combinatorial screen of targeted agents with ipatasertib and abemaciclib in multi-cell type tumor spheroids
A high-throughput screen of multi-cell type tumor spheroids was designed to identify active combinations of targeted small molecules and ipatasertib or abemaciclib. Complex spheroids include a stromal component modeled by human endothelial cells (HUVEC) and fibroblasts modeled by human mesenchymal stem cells (MSCs). The concentration ranges selected for each drug and investigational agent were based upon clinically achievable concentrations if the clinical Cmax of the agent was known.
Compounds. The drugs and investigational agents: ipatasertib (NSC767898), abemaciclib(NSC768073), selumetinib (NSC741078), trametinib (758246), adavosertib (NSC754352), everolimus (NSC733504), sapanisertib (NSC764658), vemurafenib (NSC761431), venetoclax (NSC766270), copanlisib (NSC809693), apelisib (NSC765974), palbociblib (NSC758247), vemurafenib (NSC761431), dabrafenib (NSC764134), ravoxertinib (NSC781343), BMS-387032 (NSC767048), sotorasib (NSC818433), talazoparib (NSC767125) and afursertib (NSC778305), were obtained from the National Cancer Institute (NCI) Developmental Therapeutics Program Chemical Repository. The FDA-approved anticancer drug set is available from the NCI Developmental Therapeutics Program. […] The stock solutions were prepared in dimethyl sulfoxide (DMSO, Sigma-Aldrich, St. Louis, MO, cat. D2650) at 800-fold the tested concentration and stored at -70 degrees C prior to their use. All drugs and investigational agents were tested over a range starting from a high concentration at or near the clinical Cmax and decreasing in half-log increments. If the clinical Cmax for an agent had not been determined, the highest concentration tested was 10 microM.
NCI60 Cell Culture. NCI60 cell lines were obtained from the NCI Developmental Therapeutics Program Tumor Repository. For each lot of cells, the Repository performed Applied Biosystems AmpFLSTR Identifiler testing with PCR amplification to confirm consistency with the published Identifier STR profile for each cell line. Cells were kept in continuous culture for no more than 20 passages. The optimal seeding densities for each of the cell lines at each time point assessed were determined prior to performing the concentration response studies. Briefly, the NCI60 human tumor lines were grown as monolayers in RPMI 1640 medium supplemented with 10% FBS and 2 mmol/L L-glutamine.
An additional 9 lines were from the NCI60 cell line panel including MDA-MB-231 breast carcinoma, MDA-MB-468 breast carcinoma, MCF7 breast carcinoma, Hs578T breast carcinoma, MALME-3M melanoma, SK-MEL-2 melanoma, SK-OV-3 ovarian carcinoma, DU-145 prostate carcinoma, PC-3 prostate carcinoma, all cell lines along with major genetic alterations are listed on Table 2. Pooled donor human umbilical vein endothelial cells (HUVEC, Lonza, cat. CC-2519) and human mesenchymal stem cells (hMSC, Lonza, cat. PT-2501) were purchased from Lonza (Walkersville, MD).
PDMR cell lines were grown in complete medium (DC medium): Dulbecco's modified Eagle's medium (DMEM)/F12 supplemented with 5% fetal bovine serum (FBS), 2 mM L-glutamine, 100 U/mL penicillin and 100 µg/ml streptomycin, 0.4 µg/ml hydrocortisone, 10 ng/ml epidermal growth factor (EGF) recombinant human protein, 24 µg/mL adenine, and 0.1 mg/mL primocin. During culture from frozen stock vials, PDMR cells were cultured in the same medium containing 10 µM Y-27632 (see Table 3). The PDCs were cultured in complete DMEM/F12 media without 10 microM Y-27632 dihydrochloride for at least two passages prior to the screen. The pooled donor HUVEC and hMSC were cultured in endothelial cell growth medium 2 (PromoCell, Heidelberg, Germany, cat. C-22011) and mesenchymal stem cell growth medium 2 (PromoCell, cat. C-28009), respectively. For all experiments, HUVEC and hMSC were used at passages </=5.
[…]

[1] = curve of first compound, second compound 0.1 µM
[2] = curve of first compound, second compound 0.316 µM
[3] = curve of first compound, second compound 1 µM
[4] = second compound 0.1 µM, first compound 0.0316 µM
[5] = second compound 0.1 µM, first compound 0.1 µM
[6] = second compound 0.1 µM, first compound 0.316 µM
[7] = second compound 0.1 µM, first compound 1 µM
[8] = second compound 0.1 µM, first compound 3.16 µM
[9] = second compound 0.1 µM, first compound 10 µM
[10] = second compound 0.316 µM, first compound 0.0316 µM
[11] = second compound 0.316 µM, first compound 0.1 µM
[12] = second compound 0.316 µM, first compound 0.316 µM
[13] = second compound 0.316 µM, first compound 1 µM
[14] = second compound 0.316 µM, first compound 3.16 µM
[15] = second compound 0.316 µM, first compound 10 µM
[16] = second compound 1 µM, first compound 0.0316 µM
[17] = second compound 1 µM, first compound 0.1 µM
[18] = second compound 1 µM, first compound 0.316 µM
[19] = second compound 1 µM, first compound 1 µM
[20] = second compound 1 µM, first compound 3.16 µM
[21] = second compound 1 µM, first compound 10 µM
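Note: spheroids exposed to agents for 7 days.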
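Throughout, for viability, T/C: 100% = DMSO vehicle control wells.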

Structure (SMILES) | IC50 [1] | IC50 [2] | IC50 [3] | viability, T/C [4] | viability, T/C [5] | viability, T/C [6] | viability, T/C [7] | viability, T/C [8] | viability, T/C [9] | viability, T/C [10] | viability, T/C [11] | viability, T/C [12] | viability, T/C [13] | viability, T/C [14] | viability, T/C [15] | viability, T/C [16] | viability, T/C [17] | viability, T/C [18] | viability, T/C [19] | viability, T/C [20] | other results
C=CC(=O)N1CCN(c2nc(=O)n(-c3c(C)ccnc3C(C)C)c3nc(-c4c(O)cccc4F)c(F)cc23)C(C)C1 (configuration not stated) + CC(C)NCC(C(=O)N1CCN(c2ncnc3c2C(C)CC3O)CC1)c1ccc(Cl)cc1 | 5020 nM | 1870 nM | 835 nM | 82% | 86.5% | 84.4% | 86.4% | 59.9% | 35.2% | 78.5% | 71.1% | 72.3% | 54.7% | 44.8% | 28.7% | 72.8% | 57.4% | 63.3% | 48.4% | 34% | IC50 (curve of first compound, second compound 3.16 µM): 1580 nM; IC50 (curve of first compound, second compound 10 µM): 1050 nM; viability, T/C [21]: 19.2%; viability, T/C (second compound 3.16 µM, first compound 0.0316 µM): 63.9%; viability, T/C (second compound 3.16 µM, first compound 0.1 µM): 66.9%; viability, T/C (second compound 3.16 µM, first compound 0.316 µM): 53.8%; viability, T/C (second compound 3.16 µM, first compound 1 µM): 54.5%; viability, T/C (second compound 3.16 µM, first compound 3.16 µM): 44.9%; viability, T/C (second compound 3.16 µM, first compound 10 µM): 16%; viability, T/C (second compound 10 µM, first compound 0.0316 µM): 56.2%; viability, T/C (second compound 10 µM, first compound 0.1 µM): 54.6%; viability, T/C (second compound 10 µM, first compound 0.316 µM): 64.9%; viability, T/C (second compound 10 µM, first compound 1 µM): 48.1%; viability, T/C (second compound 10 µM, first compound 3.16 µM): 29.6%; viability, T/C (second compound 10 µM, first compound 10 µM): 5.8%
CC1(C)CCC(CN2CCN(c3ccc(C(=O)NS(=O)(=O)c4ccc(NCC5CCOCC5)c([N+](=O)[O-])c4)c(Oc4cnc5[nH]ccc5c4)c3)CC2)=C(c2ccc(Cl)cc2)C1 + CCN1CCN(Cc2ccc(Nc3ncc(F)c(-c4cc(F)c5nc(C)n(C(C)C)c5c4)n3)nc2)CC1 | 4090 nM | 3890 nM | 4050 nM | 63.5% | 60.7% | 66.6% | 50.3% | 70% | 7.55% | 57% | 50.6% | 57.2% | 57.2% | 79.2% | 3.5% | 61.2% | 61.3% | 59.8% | 59.6% | 70.9% | IC50 (curve of first compound, second compound 0.01 µM): 5780 nM; IC50 (curve of first compound, second compound 0.0316 µM): 4930 nM; viability, T/C (second compound 0.01 µM, first compound 0.0316 µM): 88.7%; viability, T/C (second compound 0.01 µM, first compound 0.1 µM): 90.8%; viability, T/C (second compound 0.01 µM, first compound 0.316 µM): 71.5%; viability, T/C (second compound 0.01 µM, first compound 1 µM): 95.8%; viability, T/C (second compound 0.01 µM, first compound 3.16 µM): 121%; viability, T/C (second compound 0.01 µM, first compound 10 µM): 10.4%; viability, T/C (second compound 0.0316 µM, first compound 0.0316 µM): 75.5%; viability, T/C (second compound 0.0316 µM, first compound 0.1 µM): 83.4%; viability, T/C (second compound 0.0316 µM, first compound 0.316 µM): 59.4%; viability, T/C (second compound 0.0316 µM, first compound 1 µM): 70.9%; viability, T/C (second compound 0.0316 µM, first compound 3.16 µM): 102%; viability, T/C (second compound 0.0316 µM, first compound 10 µM): 5.08%; viability, T/C [21]: 4.55%
Cc1nc(NC(=O)N2CCCC2C(N)=O)sc1-c1ccnc(C(C)(C)C(F)(F)F)c1 (configuration not stated) |  |  |  |  |  |  |  |  |  |  |  |  |  |  |  |  |  |  |  |  | viability, T/C (compound 0.0316 µM): 85.3% and 75%; viability, T/C (compound 0.1 µM): 68.5% and 71.4%; viability, T/C (compound 0.316 µM): 48.5% and 42.7%; viability, T/C (compound 1 µM): 32.3% and 36.4%; viability, T/C (compound 3.16 µM): 22.2% and 22.6%; viability, T/C (compound 10 µM): 9.48% and 9.72%; IC50 (curve of compound): 304 nM and 311 nM

— PubChem BioAssay AID2060336 (Molecular Pharmacology Branch, DTP, NCI, 2025)
